The values that follow come from ChEMBL document CHEMBL5154745, “Synthesis and antiviral activities of quinazolinamine-coumarin conjugates toward chikungunya and hepatitis C viruses” (Eur J Med Chem, 2022).

Usually CC50 stands for the concentration at which the toxic effect on the cells reaches its halfway point. As usually defined, the EC50 is the concentration needed to bring the measured effect to its halfway point. One may read the logP as the decadic logarithm of the partition coefficient of the neutral form, usually between octanol and water.

Series [1] can be described thus: Selectivity index, ratio of CC50 for cytotoxicity against human cells over EC50 for antiviral activity against CHIKV 899 infected in African green monkey Vero cells. Type of series: toxicity, cell-based. The settings on record: read-out: Ratio CC50/EC50.
Series [2] can be described thus: Cytotoxicity against human HEL cells measured after 3 days by coulter counting method. Type of series: toxicity, cell-based. The settings on record: time 3 day.
Series [3] relates to Chikungunya virus. The series can be described thus: Antiviral activity against CHIKV 899 infected in African green monkey Vero cells measured after 7 days. Type of series: functional, organism-based. Particulars: Chikungunya virus, 899, Vero, 168 h.
Series [4] in a line: Lipophilicity, log P of the compound. Type of series: physicochemical. Particulars: octanol/water.
Another series relates to Hepatitis C virus. Description: Antiviral activity against HCV infected in human Huh-5-2 cells assessed as reduction in viral replication measured by Luciferase reporter gene assay. Type of series: functional, organism-based, Hepacivirus hominis. A general note: Reporter assays use an easily measured gene product as a stand-in for the process of interest.
The test system of series [5] is Chikungunya virus. Description: Antiviral activity against CHIKV assessed as inhibition of viral replication. Type of series: functional, organism-based.

`COc1ccc(CNc2nc(S)nc3ccccc23)cc1`: the selectivity ratio in series [1] is over 1. The compound further gave a CC50 at 72 h in series [2] of over 336 µM. In the series with Chikungunya virus [3], the EC50 was found to be 329 µM.
For `Sc1nc(Nc2ccncc2)c2ccccc2n1`, the selectivity ratio in series [1] was determined as 1.1. Besides, the CC50 at 72 h in series [2] was determined as 242 µM. The response in the series with Chikungunya virus [3] was half-maximal at 220 µM (EC50).
For `CC(C)(C)c1ccc2oc(=O)cc(CSc3nc(Nc4ccncc4)c4ccccc4n3)c2c1`, in series [1], the selectivity ratio was found to be 8.8. Further, half-maximal cytotoxicity in series [2] (CC50 at 72 h) was put at 17.3 µM. The midpoint of the response with Chikungunya virus [3], the EC50, lay at 1.96 µM. Further, the logP in series [4] came out at 3.93.
As for `Cc1cccc(Nc2nc(SCc3cc(=O)oc4ccc(C(C)(C)C)cc34)nc3ccccc23)c1C`, in series [1], the selectivity ratio was 10.8. This compound yielded a CC50 at 72 h in series [2] of 150 µM. For the same compound, the EC50 worked out at 16.6 µM in the series with Hepatitis C virus and 13.9 µM in the series with Chikungunya virus [3]. Besides, in series [4], the logP stood at 5.04.
Turning to `CC(C)(C)c1ccc2oc(=O)cc(CSc3nc(Nc4cccc5ccccc45)c4ccccc4n3)c2c1`, the EC50 in the series with Chikungunya virus [3] is over 193 µM.
On to `COc1ccccc1Nc1nc(SCc2cc(=O)oc3ccc(C(C)(C)C)cc23)nc2ccccc12`, for which the selectivity ratio in series [1] came to 16.8. Besides, in series [2], it took 51.9 µM to reach half-maximal cytotoxicity (CC50 at 72 h). Moreover, in the series with Chikungunya virus [3], it took 3.08 µM to reach a half-maximal effect (EC50). In series [4], the lipophilicity (logP) came to 4.76.
For the compound `Cc1ccc(Nc2nc(S)nc3ccccc23)c(C)c1`, in series [1], the selectivity ratio stood at 2.4. In addition, in series [2], the CC50 at 72 h came out at 142 µM. In the series on Chikungunya virus [3], this compound returned an EC50 of 59.4 µM.
With `Sc1nc(Nc2cccc3ccccc23)c2ccccc2n1`, the selectivity ratio in series [1] was determined as 7.4. This compound showed a CC50 at 72 h in series [2] of 118 µM. Moreover, the midpoint of the response in the series on Chikungunya virus [3], the EC50, lay at 16.1 µM.
In the case of `Cc1cc(C)nc(Nc2nc(S)nc3ccccc23)c1`, the EC50 with Chikungunya virus [3] is over 33.2 µM.
On to `Cc1cccc(Nc2nc(S)nc3ccccc23)c1C`, for which the selectivity ratio in series [1] was determined as 3.4. Further, the midpoint of cytotoxicity in series [2], the CC50 at 72 h, lay at 131 µM. Also, the response in the series on Chikungunya virus [3] was half-maximal at 39.1 µM (EC50).
Turning to `CC(C)(C)c1ccc2oc(=O)cc(CSc3nc(Nc4ccccc4)c4ccccc4n3)c2c1`, the selectivity ratio in series [1] is 37.2. Also, the half-maximal cytotoxic concentration (CC50) at 72 h in series [2] is 147 µM. In addition, the EC50 in the series with Chikungunya virus [3] stood at 3.95 µM. The logP in series [4] was 4.88.
Compound `Cc1ccc(Nc2nc(SCc3cc(=O)oc4ccc(C(C)(C)C)cc34)nc3ccccc23)c(C)c1` displayed a CC50 at 72 h in series [2] of 84.6 µM. The EC50 with Hepatitis C virus worked out at 27.9 µM; with Chikungunya virus [3], 3.11 µM. Besides, the logP in series [4] stood at 5.03.
In turn, `COc1cc2oc(=O)cc(CSc3nc(Nc4ccccc4)c4ccccc4n3)c2cc1OC` gave an EC50 with Chikungunya virus [3] of over 212 µM.
As to `COc1ccccc1Nc1nc(S)nc2ccccc12`, the selectivity ratio in series [1] came out at 1.3. This compound registered a CC50 at 72 h in series [2] of 290 µM. This compound also returned an EC50 with Chikungunya virus [3] of 224 µM.
For the compound `Cc1ccc2oc(=O)cc(CSc3nc(Nc4ccccc4)c4ccccc4n3)c2c1`, in the series with Chikungunya virus [3], the EC50 is over 47 µM.
On the same count and under the same terms, in the case of `CC(C)(C)c1ccc2oc(=O)cc(CSc3nc(N(Cc4ccccc4)c4ccccc4)c4ccccc4n3)c2c1` it was over 180 µM; in that of `O=c1cc(CSc2nc(Nc3ccccc3)c3ccccc3n2)c2ccc(O)cc2o1`, over 234 µM; in that of `Cc1cc(C)nc(Nc2nc(SCc3cc(=O)oc4ccc(C(C)(C)C)cc34)nc3ccccc23)c1`, over 151 µM.
For `COc1ccc(CNc2nc(SCc3cc(=O)oc4ccc(C(C)(C)C)cc34)nc3ccccc23)cc1`, the selectivity ratio in series [1] was over 1.7. For the same compound, in series [2], the CC50 at 72 h is over 147 µM. In the series with Chikungunya virus [3], the EC50 is 85.3 µM.
For the compound `Sc1nc(Nc2ccccc2)c2ccccc2n1`, in series [1], the selectivity ratio was found to be 2.5. The compound further gave a CC50 at 72 h in series [2] of 275 µM. The compound further returned an EC50 in the series on Chikungunya virus [3] of 108 µM.
In series [2], `O=c1ccc2ccccc2o1` [COUMARIN] gave a cytotoxic concentration (CC50) at 72 h of over 500 µM. Further, the EC50 in the series on Hepatitis C virus was over 150 µM.
For the compound `Cc1ccc(C(=O)Nc2ccc(S(=O)(=O)O)c3cc(S(=O)(=O)O)cc(S(=O)(=O)O)c23)cc1NC(=O)c1cccc(NC(=O)Nc2cccc(C(=O)Nc3cc(C(=O)Nc4ccc(S(=O)(=O)O)c5cc(S(=O)(=O)O)cc(S(=O)(=O)O)c45)ccc3C)c2)c1` [SURAMIN], the EC50 with Chikungunya virus [5] is 80 µM.
